Measurements published in publication PMC8364686, “Safety, tolerability, pharmacokinetics and pharmacodynamics of single oral doses of BI 187004, an inhibitor of 11beta-hydroxysteroid dehydrogenase-1, in healthy male volunteers with overweight or obesity” (Clinical Diabetes and Endocrinology, 2021).
Several values for one entry are separate records, joined by “and”; a condition that tells them apart may be missing. Equal entries are not always repeated. Where two headings read alike, the source gives them in different places.

Key:
[1] = Urinary excretion of BI 187004 (LC–MS/MS); assay type: in vivo, human
Excerpt: For each accepted run, the acceptance criteria for the calibration standards and quality controls were met.

HPA axis = assay: Total urinary corticosteroid excretion (aTHF + THF + UFF + UFE + THE); conditions: for Total corticosteroids 0 – 24h (day 1) gMean (gCV [%]) / Total corticosteroids % of baseline 0 – 24h (day 1)/-24 – 0h (day -1) gMean (gCV): urine; for Total corticosteroids placebo corrected % change from baseline, adjusted gMean (90% CI) / Total corticosteroids placebo corrected % of baseline, adjusted gMean (90% CI): urine 0–24 h, ANCOVA
Procedure: The urinary samples for determination of urinary free cortisol (UFF), urinary free cortisone (UFE), urinary total cortisol (UTF), urinary total cortisone (UTE), and their metabolites 5alpha- or allo-tetrahydrocortisol (aTHF), 5beta-tetrahydrocortisol (THF), and tetrahydrocortisone (THE) were analyzed using a validated LC–MS/MS method.
The placebo corrected percentage change from baseline of the data shown in Supplementary Table 1 and 2 was analyzed statistically by an ANCOVA model with baseline as covariate on the logarithmic scale.

[2] = BI 187004 concentration in subcutaneous adipose tissue biopsies (LC–MS/MS); assay type: in vivo, human; conditions: for Kp at 10 h / Kp at 24 h / concentration at 10 h / concentration at 24 h: male, human, oral; for Kp at 10 h: read-out: AT:plasma ratio (range) 10 h; for Kp at 24 h: read-out: AT:plasma ratio (range) 24 h; for concentration at 10 h: read-out: AT C10 gMean (range); for concentration at 24 h: read-out: AT C24 gMean (range)
Procedure: The assay was qualified for the BI 187004 concentration range of 2.5—10,000 ng/g. The BI 187004 AT concentration data for study samples were generated from seven analytical runs. For each run, the acceptance criteria for the calibration standards and QC samples were met. Acceptance criteria for all sample analysis runs were ≤ 25% RSD (relative standard deviation / precision) and ± 25% RE (relative error / accuracy) for calibration standards and quality control samples.

Structure (SMILES): N#Cc1ccc2c(c1)[C@H]1CCCN(C(=O)c3ccc4[nH]cnc4c3)[C@H]1C2 [BI 187004]
- Fraction of dose excreted in urine (renal excretion), range across dose groups ([1]; 0–72 h collection interval): 3–5% and 3.00–4.93%
- fe0-72 h (fraction eliminated in urine from 0 to 72 h) ([1]; 5 mg single oral dose): 3.00%
- fe0-72 h (fraction eliminated in urine from 0 to 72 h) ([1]; 10 mg single oral dose): 4.03%
- fe0-72 h (fraction eliminated in urine from 0 to 72 h) ([1]; 20 mg single oral dose): 4.93%
- fe0-72 h (fraction eliminated in urine from 0 to 72 h) ([1]; 40 mg single oral dose): 4.21%
- fe0-72 h (fraction eliminated in urine from 0 to 72 h) ([1]; 80 mg single oral dose): 4.55%
- fe0-72 h (fraction eliminated in urine from 0 to 72 h) ([1]; 160 mg single oral dose): 4.75%
- fe0-72 h (fraction eliminated in urine from 0 to 72 h) ([1]; 240 mg single oral dose): 4.88%
- fe0-72 h (fraction eliminated in urine from 0 to 72 h) ([1]; 360 mg single oral dose): 4.25%
- Total corticosteroids 0 – 24h (day 1) gMean (gCV [%]) (HPA axis; 2.5 mg): 16067.0 (18.128) μg
- Total corticosteroids % of baseline 0 – 24h (day 1)/-24 – 0h (day -1) gMean (gCV) (HPA axis; 2.5 mg): 161.3 (44.4) %
- Total corticosteroids placebo corrected % change from baseline, adjusted gMean (90% CI) (HPA axis; 2.5 mg): 30.3 (11.5, 52.2) 0.0062%
- Total corticosteroids placebo corrected % of baseline, adjusted gMean (90% CI) (HPA axis; 2.5 mg): 130.3% and 130.3 (111.5, 152.2) %
- Total corticosteroids 0 – 24h (day 1) gMean (gCV [%]) (HPA axis; 5 mg): 24324.0 (23.620) μg
- Total corticosteroids % of baseline 0 – 24h (day 1)/-24 – 0h (day -1) gMean (gCV) (HPA axis; 5 mg): 179.9 (21.8) %
- Total corticosteroids placebo corrected % change from baseline, adjusted gMean (90% CI) (HPA axis; 5 mg): 72.1 (47.7, 100.6) <0.0001%
- Total corticosteroids placebo corrected % of baseline, adjusted gMean (90% CI) (HPA axis; 5 mg): 172.1 (147.7, 200.6) %
- Total corticosteroids 0 – 24h (day 1) gMean (gCV [%]) (HPA axis; 10 mg): 23965.4 (24.142) μg
- Total corticosteroids % of baseline 0 – 24h (day 1)/-24 – 0h (day -1) gMean (gCV) (HPA axis; 10 mg): 178.1 (24.5) %
- Total corticosteroids placebo corrected % change from baseline, adjusted gMean (90% CI) (HPA axis; 10 mg): 69.9 (45.8, 98.1) <0.0001%
- Total corticosteroids placebo corrected % of baseline, adjusted gMean (90% CI) (HPA axis; 10 mg): 169.9 (145.8, 198.1) %
- Total corticosteroids 0 – 24h (day 1) gMean (gCV [%]) (HPA axis; 20 mg): 27240.6 (5.276) μg
- Total corticosteroids % of baseline 0 – 24h (day 1)/-24 – 0h (day -1) gMean (gCV) (HPA axis; 20 mg): 174.7 (31.3) %
- Total corticosteroids placebo corrected % change from baseline, adjusted gMean (90% CI) (HPA axis; 20 mg): 80.9 (54.9, 111.2) <0.0001%
- Total corticosteroids placebo corrected % of baseline, adjusted gMean (90% CI) (HPA axis; 20 mg): 180.9 (154.9, 211.2) %
- Total corticosteroids 0 – 24h (day 1) gMean (gCV [%]) (HPA axis; 40 mg): 24484.7 (17.661) μg
- Total corticosteroids % of baseline 0 – 24h (day 1)/-24 – 0h (day -1) gMean (gCV) (HPA axis; 40 mg): 213.9 (24.4) %
- Total corticosteroids placebo corrected % change from baseline, adjusted gMean (90% CI) (HPA axis; 40 mg): 86.6 (60.0, 117.5) <0.0001%
- Total corticosteroids placebo corrected % of baseline, adjusted gMean (90% CI) (HPA axis; 40 mg): 186.6 (160.0, 217.5) %
- Total corticosteroids 0 – 24h (day 1) gMean (gCV [%]) (HPA axis; 80 mg): 29884.0 (24.608) μg
- Total corticosteroids % of baseline 0 – 24h (day 1)/-24 – 0h (day -1) gMean (gCV) (HPA axis; 80 mg): 189.7 (16.0) %
- Total corticosteroids placebo corrected % change from baseline, adjusted gMean (90% CI) (HPA axis; 80 mg): 97.5 (69.1, 130.7) <0.0001%
- Total corticosteroids placebo corrected % of baseline, adjusted gMean (90% CI) (HPA axis; 80 mg): 197.5% and 197.5 (169.1, 230.7) %
- Total corticosteroids 0 – 24h (day 1) gMean (gCV [%]) (HPA axis; 160 mg): 25409.0 (28.223) μg
- Total corticosteroids % of baseline 0 – 24h (day 1)/-24 – 0h (day -1) gMean (gCV) (HPA axis; 160 mg): 171.9 (13.1) %
- Total corticosteroids placebo corrected % change from baseline, adjusted gMean (90% CI) (HPA axis; 160 mg): 72.8 (48.1, 101.6) <0.0001%
- Total corticosteroids placebo corrected % of baseline, adjusted gMean (90% CI) (HPA axis; 160 mg): 172.8 (148.1, 201.6) %
- Total corticosteroids 0 – 24h (day 1) gMean (gCV [%]) (HPA axis; 240 mg): 26872.4 (19.594) μg
- Total corticosteroids % of baseline 0 – 24h (day 1)/-24 – 0h (day -1) gMean (gCV) (HPA axis; 240 mg): 174.5 (17.4) %
- Total corticosteroids placebo corrected % change from baseline, adjusted gMean (90% CI) (HPA axis; 240 mg): 79.4 (53.7, 109.5) <0.0001%
- Total corticosteroids placebo corrected % of baseline, adjusted gMean (90% CI) (HPA axis; 240 mg): 179.4 (153.7, 209.5) %
- Total corticosteroids 0 – 24h (day 1) gMean (gCV [%]) (HPA axis; 360 mg): 26152.2 (30.046) μg
- Total corticosteroids % of baseline 0 – 24h (day 1)/-24 – 0h (day -1) gMean (gCV) (HPA axis; 360 mg): 168.0 (28.0) %
- Total corticosteroids placebo corrected % change from baseline, adjusted gMean (90% CI) (HPA axis; 360 mg): 73.8 (48.8, 102.9) <0.0001%
- Total corticosteroids placebo corrected % of baseline, adjusted gMean (90% CI) (HPA axis; 360 mg): 173.8 (148.8, 202.9) %
- Total urinary corticosteroid excretion (sum of UFF, UFE, aTHF, THF and THE), maximum across doses (HPA axis; placebo corrected % of baseline): up to 197.5%
- AT:plasma ratio (range) 24 h ([2]; 10 mg single dose, 24 h, only range printed): – (9.58 – 20.1)
- AT C24 gMean (range) ([2]; 10 mg single dose, adipose tissue, 24 h, only range printed): – (9.91 – 22.6) nmol/L
- Plasma concentration compared with AT concentration (times higher) ([2]; 24 h post dosing): approximately 10
- Ratio ATC24/PlasmaC24, range across dose groups ([2]; 24 h post dosing): 8.58—11.4
- Kp at 10 h ([2]; subcutaneous adipose tissue / plasma, 40 mg single dose): 10.1
- Kp at 24 h ([2]; subcutaneous adipose tissue / plasma, 40 mg single dose, 24 h): 8.58
- Kp at 10 h ([2]; subcutaneous adipose tissue / plasma, 80 mg single dose): 8.36
- Kp at 24 h ([2]; subcutaneous adipose tissue / plasma, 80 mg single dose, 24 h): 9.62
- Kp at 10 h ([2]; subcutaneous adipose tissue / plasma, 160 mg single dose): 13.7
- Kp at 24 h ([2]; subcutaneous adipose tissue / plasma, 160 mg single dose, 24 h): 10.3
- Kp at 24 h ([2]; subcutaneous adipose tissue / plasma, 240 mg single dose, 24 h): 9.96
- Kp at 10 h ([2]; subcutaneous adipose tissue / plasma, 360 mg single dose): 16.2
- Kp at 24 h ([2]; subcutaneous adipose tissue / plasma, 360 mg single dose, 24 h): 11.4
- Kp at 10 h ([2]; subcutaneous adipose tissue and plasma, 240 mg single dose): 25.1
- Kp at 10 h ([2]; subcutaneous adipose tissue, 10 mg single dose): 10.3
- concentration at 10 h ([2]; subcutaneous adipose tissue, 10 mg single dose, adipose tissue): 17.9 nM
- Kp at 10 h ([2]; subcutaneous adipose tissue, 20 mg single dose): 9.97
- Kp at 24 h ([2]; subcutaneous adipose tissue, 20 mg single dose, 24 h): 10.8
- concentration at 10 h ([2]; subcutaneous adipose tissue, 20 mg single dose, adipose tissue): 38.1 nM
- concentration at 24 h ([2]; subcutaneous adipose tissue, 20 mg single dose, adipose tissue, 24 h): 17.5 nM
- concentration at 10 h ([2]; subcutaneous adipose tissue, 40 mg single dose, adipose tissue): 80.3 nM
- concentration at 24 h ([2]; subcutaneous adipose tissue, 40 mg single dose, adipose tissue, 24 h): 27.5 nM
- concentration at 10 h ([2]; subcutaneous adipose tissue, 80 mg single dose, adipose tissue): 128 nM
- concentration at 24 h ([2]; subcutaneous adipose tissue, 80 mg single dose, adipose tissue, 24 h): 84.5 nM
- concentration at 10 h ([2]; subcutaneous adipose tissue, 160 mg single dose, adipose tissue): 412 nM
- concentration at 24 h ([2]; subcutaneous adipose tissue, 160 mg single dose, adipose tissue, 24 h): 168 nM
- concentration at 10 h ([2]; subcutaneous adipose tissue, 240 mg single dose, adipose tissue): 653 nM
- concentration at 24 h ([2]; subcutaneous adipose tissue, 240 mg single dose, adipose tissue, 24 h): 212 nM
- concentration at 10 h ([2]; subcutaneous adipose tissue, 360 mg single dose, adipose tissue): 857 nM
- concentration at 24 h ([2]; subcutaneous adipose tissue, 360 mg single dose, adipose tissue, 24 h): 307 nM
